Test: excess molar enthalpy (molar enthalpy of mixing); xn = mol fraction of the nth substance listed
Settings: 101 kPa, Liquid, Flow calorimetry

CC(C)CC(C)(C)C [2,2,4-trimethylpentane] + CCCCO
313.15 K
Settings | excess molar enthalpy [kcal/mol]
x1 = 0.0502 | 0.0251
x1 = 0.1001 | 0.0487
x1 = 0.1505 | 0.072
x1 = 0.2003 | 0.0939
x1 = 0.2505 | 0.115
x1 = 0.3001 | 0.134
x1 = 0.3504 | 0.152
x1 = 0.4001 | 0.167
x1 = 0.4499 | 0.181
x1 = 0.5008 | 0.192
x1 = 0.5501 | 0.2
x1 = 0.5999 | 0.205
x1 = 0.6498 | 0.207
x1 = 0.7 | 0.206
x1 = 0.75 | 0.201
x1 = 0.7996 | 0.193
x1 = 0.8502 | 0.179
x1 = 0.9001 | 0.159
x1 = 0.9506 | 0.125

CCCCO [butan-1-ol] + Cc1ccccc1
excess molar enthalpy [kcal/mol]
Settings | 298.15 K | 313.15 K
x2 = 0.0504 | 0.0245 | 0.0341
x2 = 0.0998 | 0.0498 | –
x2 = 0.0999 | – | 0.0685
x2 = 0.1501 | 0.0753 | 0.102
x2 = 0.2011 | 0.101 | 0.136
x2 = 0.251 | 0.125 | –
x2 = 0.2512 | – | 0.166
x2 = 0.2999 | 0.148 | –
x2 = 0.3 | – | 0.195
x2 = 0.3495 | 0.169 | –
x2 = 0.3496 | – | 0.221
x2 = 0.3998 | 0.189 | –
x2 = 0.4 | – | 0.243
x2 = 0.4509 | 0.207 | –
x2 = 0.4511 | – | 0.264
x2 = 0.5009 | 0.221 | –
x2 = 0.501 | – | 0.279
x2 = 0.5495 | 0.231 | –
x2 = 0.5496 | – | 0.291
x2 = 0.6009 | 0.239 | –
x2 = 0.601 | – | 0.299
x2 = 0.6509 | 0.242 | –
x2 = 0.6511 | – | 0.302
x2 = 0.6996 | 0.24 | –
x2 = 0.6998 | – | 0.298
x2 = 0.7512 | 0.234 | –
x2 = 0.7513 | – | 0.29
x2 = 0.7992 | 0.222 | 0.274
x2 = 0.85 | 0.203 | 0.249
x2 = 0.8993 | 0.174 | 0.21
x2 = 0.9493 | 0.124 | 0.143

C1CCCCC1 [cyclohexane] + CCCCO
313.15 K
Settings | excess molar enthalpy [kcal/mol]
x1 = 0.0505 | 0.0234
x1 = 0.1001 | 0.0459
x1 = 0.1505 | 0.0679
x1 = 0.2 | 0.0885
x1 = 0.2505 | 0.108
x1 = 0.2999 | 0.126
x1 = 0.3501 | 0.143
x1 = 0.4003 | 0.158
x1 = 0.4504 | 0.171
x1 = 0.5003 | 0.182
x1 = 0.55 | 0.19
x1 = 0.5995 | 0.195
x1 = 0.6499 | 0.197
x1 = 0.7 | 0.194
x1 = 0.7499 | 0.188
x1 = 0.7995 | 0.178
x1 = 0.8499 | 0.163
x1 = 0.8999 | 0.142
x1 = 0.9496 | 0.109

C=CCCCC [hex-1-ene] + CCCCO
excess molar enthalpy [kcal/mol]
Settings | 298.15 K | 313.15 K
x1 = 0.05 | 0.0104 | 0.0188
x1 = 0.1001 | – | 0.0398
x1 = 0.1002 | 0.0234 | –
x1 = 0.1505 | – | 0.0602
x1 = 0.1506 | 0.0372 | –
x1 = 0.2002 | – | 0.0812
x1 = 0.2003 | 0.0527 | –
x1 = 0.2499 | – | 0.102
x1 = 0.25 | 0.0676 | –
x1 = 0.3004 | – | 0.121
x1 = 0.3005 | 0.0829 | –
x1 = 0.3498 | – | 0.141
x1 = 0.35 | 0.0967 | –
x1 = 0.4 | – | 0.158
x1 = 0.4001 | 0.11 | –
x1 = 0.4498 | – | 0.174
x1 = 0.4499 | 0.123 | –
x1 = 0.5001 | – | 0.188
x1 = 0.5003 | 0.134 | –
x1 = 0.5501 | – | 0.198
x1 = 0.5503 | 0.143 | –
x1 = 0.5995 | – | 0.206
x1 = 0.5996 | 0.149 | –
x1 = 0.6504 | – | 0.21
x1 = 0.6505 | 0.154 | –
x1 = 0.7005 | – | 0.211
x1 = 0.7006 | 0.155 | –
x1 = 0.7498 | – | 0.207
x1 = 0.7499 | 0.153 | –
x1 = 0.8005 | – | 0.2
x1 = 0.8006 | 0.147 | –
x1 = 0.8503 | 0.138 | 0.187
x1 = 0.9002 | 0.123 | 0.166
x1 = 0.9501 | 0.0969 | 0.127

C=CCCCC [hex-1-ene] + CCCCOCCCC
excess molar enthalpy [kcal/mol]
Settings | 298.15 K | 313.15 K
x2 = 0.0503 | -0.000741 | -0.001
x2 = 0.1001 | -0.00139 | –
x2 = 0.15 | – | -0.00296
x2 = 0.1501 | -0.00258 | –
x2 = 0.2 | -0.0033 | -0.00382
x2 = 0.25 | -0.00402 | -0.00447
x2 = 0.2997 | – | -0.00497
x2 = 0.2998 | -0.00452 | –
x2 = 0.3502 | -0.00488 | –
x2 = 0.3503 | – | -0.0054
x2 = 0.3994 | -0.00519 | –
x2 = 0.3995 | – | -0.00566
x2 = 0.4502 | -0.00533 | –
x2 = 0.4503 | – | -0.00581
x2 = 0.4995 | -0.00543 | –
x2 = 0.4997 | – | -0.00586
x2 = 0.5494 | -0.00533 | –
x2 = 0.5495 | – | -0.00578
x2 = 0.5996 | -0.00511 | –
x2 = 0.5997 | – | -0.00557
x2 = 0.6491 | -0.0048 | –
x2 = 0.6493 | – | -0.00521
x2 = 0.7001 | -0.00437 | –
x2 = 0.7002 | – | -0.00468
x2 = 0.7491 | -0.00382 | –
x2 = 0.7492 | – | -0.00425
x2 = 0.7995 | -0.00296 | –
x2 = 0.7996 | – | -0.00361
x2 = 0.8501 | -0.00232 | -0.00284
x2 = 0.8996 | -0.00155 | -0.00203
x2 = 0.9504 | -0.000717 | -0.00108

CC1CCCCC1 [methylcyclohexane] + CCCCO
excess molar enthalpy [kcal/mol]
Settings | 298.15 K | 313.15 K
x1 = 0.0498 | 0.0151 | 0.0212
x1 = 0.1 | 0.0301 | 0.0424
x1 = 0.1505 | 0.0449 | 0.0629
x1 = 0.2005 | 0.0588 | 0.0826
x1 = 0.2506 | 0.0725 | –
x1 = 0.2507 | – | 0.101
x1 = 0.3 | 0.0852 | 0.119
x1 = 0.3502 | 0.0974 | 0.135
x1 = 0.4002 | 0.109 | 0.15
x1 = 0.45 | – | 0.163
x1 = 0.4501 | 0.119 | –
x1 = 0.5006 | – | 0.174
x1 = 0.5007 | 0.127 | –
x1 = 0.5497 | 0.134 | 0.182
x1 = 0.6004 | 0.138 | 0.188
x1 = 0.6505 | 0.14 | 0.19
x1 = 0.6999 | 0.14 | –
x1 = 0.7 | – | 0.189
x1 = 0.7498 | 0.136 | 0.184
x1 = 0.7999 | 0.129 | –
x1 = 0.8 | – | 0.176
x1 = 0.8504 | 0.118 | 0.162
x1 = 0.8997 | 0.104 | 0.144
x1 = 0.9505 | 0.0814 | 0.112

CC1CCCCC1 [methylcyclohexane] + CCCCOCCCC
excess molar enthalpy [kcal/mol]
Settings | 298.15 K | 313.15 K
x2 = 0.0497 | 0.0055 | 0.00497
x2 = 0.1003 | 0.0103 | 0.00908
x2 = 0.1501 | 0.0137 | 0.0126
x2 = 0.1997 | 0.0165 | –
x2 = 0.1998 | – | 0.0153
x2 = 0.2501 | 0.0189 | 0.0175
x2 = 0.3002 | 0.0207 | 0.0193
x2 = 0.3499 | 0.0218 | –
x2 = 0.35 | – | 0.0203
x2 = 0.3993 | 0.0225 | –
x2 = 0.3994 | – | 0.0211
x2 = 0.45 | 0.0228 | –
x2 = 0.4501 | – | 0.0215
x2 = 0.4993 | 0.0226 | 0.0213
x2 = 0.5499 | 0.022 | –
x2 = 0.55 | – | 0.0207
x2 = 0.5999 | 0.021 | –
x2 = 0.6 | – | 0.0197
x2 = 0.6491 | 0.0196 | –
x2 = 0.6492 | – | 0.0184
x2 = 0.6997 | 0.0177 | 0.0168
x2 = 0.7493 | 0.0156 | 0.0147
x2 = 0.8002 | 0.0131 | 0.0123
x2 = 0.8501 | 0.0103 | 0.00966
x2 = 0.9001 | 0.00707 | 0.00674
x2 = 0.95 | 0.00356 | –
x2 = 0.9501 | – | 0.00339

Reference: the NIST ThermoML archive (doi:10.1016/j.fluid.2011.11.005)
